In brackets after ≈: the same amount, converted by molar mass.
Legend:
Format in all cases: cell-based
Past. multocida PA2 = test: Veterinary bacteria MIC; settings: Pasteurella multocida, Diagnostic Sensitivity Test Agar, 18 hours at 37°C
Protocol: (§1) The values were determined using a two fold serial dilutions.in Diagnostic Sensitivity Test Agar with an inoculum of 10^4 organisms and incubation for 18 hours at 37°C.

Staph. aureus Oxford [1] = test: Veterinary bacteria MIC; settings: Staphylococcus aureus, Diagnostic Sensitivity Test Agar, 18 hours at 37°C
Protocol: as §1

Past. haemolytica PA5 = test: Veterinary bacteria MIC; settings: Mannheimia haemolytica, Diagnostic Sensitivity Test Agar, 18 hours at 37°C
Protocol: as §1

Bord. bronchiseptica BO9 = test: Veterinary bacteria MIC; settings: Bordetella bronchiseptica, Diagnostic Sensitivity Test Agar, 18 hours at 37°C
Protocol: as §1

Bord. bronchiseptica BO8 = test: Veterinary bacteria MIC; settings: Bordetella bronchiseptica, Diagnostic Sensitivity Test Agar, 18 hours at 37°C
Protocol: as §1

Strep. uberis SPU1 = test: Veterinary bacteria MIC; settings: Streptococcus uberis, Diagnostic Sensitivity Test Agar, 18 hours at 37°C
Protocol: as §1

Staph. aureus 152 = test: Veterinary bacteria MIC; settings: Staphylococcus aureus, Diagnostic Sensitivity Test Agar, 18 hours at 37°C
Protocol: as §1

S. typhimurium S18 = test: Veterinary bacteria MIC; settings: Salmonella enterica, Diagnostic Sensitivity Test Agar, 18 hours at 37°C
Protocol: as §1

[2] = test system: Strep. suis (group D) SPS11; test: Veterinary bacteria MIC; settings: Streptococcus suis, Diagnostic Sensitivity Test Agar, 18 hours at 37°C
Protocol: as §1

Strep. dysgalactiae SPD1 = test: Veterinary bacteria MIC; settings: Streptococcus dysgalactiae, Diagnostic Sensitivity Test Agar, 18 hours at 37°C
Protocol: as §1

Past. multocida PA1 = test: Veterinary bacteria MIC; settings: Pasteurella multocida, Diagnostic Sensitivity Test Agar, 18 hours at 37°C
Protocol: as §1

[3] = test system: Erysipelothrix rhusiopathiae NCTC 8163; test: Veterinary bacteria MIC; settings: NCTC8163, Diagnostic Sensitivity Test Agar, 18 hours at 37°C
Protocol: as §1

S. dublin S7 = test: Veterinary bacteria MIC; settings: Salmonella enterica, Diagnostic Sensitivity Test Agar, 18 hours at 37°C
Protocol: as §1

E. Coli NCTC 10418 = test: Veterinary bacteria MIC; settings: Escherichia coli, NCTC10418, Diagnostic Sensitivity Test Agar, 18 hours at 37°C
Protocol: as §1

[4] = test system: Corynebacterium pyogenes CY1; test: Veterinary bacteria MIC; settings: Trueperella pyogenes, Diagnostic Sensitivity Test Agar, 18 hours at 37°C
Protocol: as §1

Staph. aureus B4 = test: Veterinary bacteria MIC; settings: Staphylococcus aureus, Diagnostic Sensitivity Test Agar, 18 hours at 37°C
Protocol: as §1

Strep. agalactiae SPA1 = test: Veterinary bacteria MIC; settings: Streptococcus agalactiae, Diagnostic Sensitivity Test Agar, 18 hours at 37°C
Protocol: as §1

E. Coli E1 = test: Veterinary bacteria MIC; settings: Escherichia coli, Diagnostic Sensitivity Test Agar, 18 hours at 37°C
Protocol: as §1

M. dispar NCTC 10125 = test: Anti-mycoplasmal in vitro MIC; settings: 144 h, Friis broth solidified with 0.9% agarose, 6 days incubation at 37°C
M. suipneumoniae Str. 11 = test: Anti-mycoplasmal in vitro MIC; settings: Mesomycoplasma hyopneumoniae, 144 h, Friis broth solidified with 0.9% agarose, 6 days incubation at 37°C
M. suipneumoniae NB12 = test: Anti-mycoplasmal in vitro MIC; settings: Mesomycoplasma hyopneumoniae, 144 h, Friis broth solidified with 0.9% agarose, 6 days incubation at 37°C
M. suipneumoniae LABER = test: Anti-mycoplasmal in vitro MIC; settings: Mesomycoplasma hyopneumoniae, 144 h, Friis broth solidified with 0.9% agarose, 6 days incubation at 37°C
[5] = test system: M. hyosynoviae ATCC 25591; test: Anti-mycoplasmal in vitro MIC; settings: 144 h, Friis broth solidified with 0.9% agarose, 6 days incubation at 37°C
M. suipneumoniae MS 16 = test: Anti-mycoplasmal in vitro MIC; settings: Mesomycoplasma hyopneumoniae, MS16, 144 h, Friis broth solidified with 0.9% agarose, 6 days incubation at 37°C
M. pneumoniae ATCC 15492 = test: Anti-mycoplasmal in vitro MIC; settings: Mycoplasmoides pneumoniae, ATCC15492, 144 h, Friis broth solidified with 0.9% agarose, 6 days incubation at 37°C
M. hyorhinis ATCC 25021 = test: Anti-mycoplasmal in vitro MIC; settings: Mesomycoplasma hyorhinis, ATCC25021, 144 h, Friis broth solidified with 0.9% agarose, 6 days incubation at 37°C
M. hyorhinis ATCC 23234 = test: Anti-mycoplasmal in vitro MIC; settings: Mesomycoplasma hyorhinis, ATCC23234, 144 h, Friis broth solidified with 0.9% agarose, 6 days incubation at 37°C
[6] = test system: M. bovigenitalium ATCC 14173; test: Anti-mycoplasmal in vitro MIC; settings: 144 h, Friis broth solidified with 0.9% agarose, 6 days incubation at 37°C
Staph. aureus Oxford [7] = test: Human bacteria MIC; settings: Staphylococcus aureus, nutrient agar with 5% chocolated horse blood, 18 hours at 37°C
Protocol: (§2) The values were determined by serial dilutions in nutrient agar with 5% chocolated horse blood after incubations for 18 hours at 37 °C.

[8] = test system: Pasteurella multocida 1633; test: Human bacteria MIC; settings: nutrient agar with 5% chocolated horse blood, 18 hours at 37°C
Protocol: as §2

Strep. faecalis I = test: Human bacteria MIC; settings: Enterococcus faecalis, nutrient agar with 5% chocolated horse blood, 18 hours at 37°C
Protocol: as §2

P. mirabilis 889 = test: Human bacteria MIC; settings: Proteus mirabilis, nutrient agar with 5% chocolated horse blood, 18 hours at 37°C
Protocol: as §2

[9] = test system: M. suipneumoniae NCTC 10110; test: Anti-mycoplasmal in vitro MIC; settings: Mesomycoplasma hyopneumoniae, NCTC10110, 144 h, Friis broth solidified with 0.9% agarose, 6 days incubation at 37°C
[10] = test system: M. suipneumoniae PW/C/210; test: Anti-mycoplasmal in vitro MIC; settings: Mesomycoplasma hyopneumoniae, 144 h, Friis broth solidified with 0.9% agarose, 6 days incubation at 37°C
M. suipneumoniae TAM 6N = test: Anti-mycoplasmal in vitro MIC; settings: Mesomycoplasma hyopneumoniae, TAM6N, 144 h, Friis broth solidified with 0.9% agarose, 6 days incubation at 37°C
M. suipneumoniae JF 435 = test: Anti-mycoplasmal in vitro MIC; settings: Mesomycoplasma hyopneumoniae, JF435, 144 h, Friis broth solidified with 0.9% agarose, 6 days incubation at 37°C

SMILES	MIC (Past. multocida PA2) [µg/mL]	MIC (Staph. aureus Oxford [1]) [µg/mL]	MIC (Past. haemolytica PA5) [µg/mL]	MIC (Bord. bronchiseptica BO9) [µg/mL]	MIC (Bord. bronchiseptica BO8) [µg/mL]	MIC (Strep. uberis SPU1) [µg/mL]	MIC (Staph. aureus 152) [µg/mL]	MIC (S. typhimurium S18) [µg/mL]	MIC [2] [µg/mL]	MIC (Strep. dysgalactiae SPD1) [µg/mL]	MIC (Past. multocida PA1) [µg/mL]	MIC [3] [µg/mL]	MIC (S. dublin S7) [µg/mL]	MIC (E. Coli NCTC 10418) [µg/mL]	MIC [4] [µg/mL]	MIC (Staph. aureus B4) [µg/mL]	MIC (Strep. agalactiae SPA1) [µg/mL]	MIC (E. Coli E1) [µg/mL]	MIC (M. dispar NCTC 10125) [µg/mL]	MIC (M. suipneumoniae Str. 11) [µg/mL]	further results
C/C(=C\C(=O)OCc1ccc(C#N)cc1)CC1OCC(CC2OC2C(C)C(C)O)C(O)C1O (stereo not drawn) [Example 3, p-Cyanobenzyl monate A]	0.156 (≈ 0.339 µM)	0.312 (≈ 0.679 µM)	2.5 (≈ 5.44 µM)	10 (≈ 21.8 µM)	20 (≈ 43.5 µM)	0.07 (≈ 0.152 µM)	0.312 (≈ 0.679 µM)	80 (≈ 174 µM)	2.5 (≈ 5.44 µM)	0.156 (≈ 0.339 µM)	0.625 (≈ 1.36 µM)	40 (≈ 87 µM)	> 80	80 (≈ 174 µM)	> 80	0.625 (≈ 1.36 µM)	1.25 (≈ 2.72 µM)	80 (≈ 174 µM)	0.05 (≈ 0.109 µM)	0.1 (≈ 0.218 µM)	MIC (M. suipneumoniae NB12): 0.25 µg/mL (≈ 0.544 µM); MIC (M. suipneumoniae LABER): 0.1 µg/mL (≈ 0.218 µM); MIC [5]: < 0.01 µg/mL; MIC (M. suipneumoniae MS 16): 0.1 µg/mL (≈ 0.218 µM); MIC (M. pneumoniae ATCC 15492): 0.25 µg/mL (≈ 0.544 µM); MIC (M. hyorhinis ATCC 25021): 0.1 µg/mL (≈ 0.218 µM); MIC (M. hyorhinis ATCC 23234): 0.1 µg/mL (≈ 0.218 µM); MIC [6]: ≤ 0.01 µg/mL; MIC (Staph. aureus Oxford [7]): 0.25 µg/mL (≈ 0.544 µM); MIC [8]: 0.5 µg/mL (≈ 1.09 µM); MIC (Strep. faecalis I): 100 µg/mL (≈ 218 µM); MIC (P. mirabilis 889): 50 µg/mL (≈ 109 µM); MIC [9]: 0.25 µg/mL (≈ 0.544 µM); MIC [10]: 0.1 µg/mL (≈ 0.218 µM); MIC (M. suipneumoniae TAM 6N): 0.25 µg/mL (≈ 0.544 µM); MIC (M. suipneumoniae JF 435): 0.25 µg/mL (≈ 0.544 µM)
C/C(=C\C(=O)OC(C)c1ccc(C#N)cc1)CC1OCC(CC2OC2C(C)C(C)O)C(O)C1O (stereo not drawn) [Example 4, 1-(p-Cyanophenyl)ethyl monate A]	< 0.019	2.5 (≈ 5.28 µM)	40 (≈ 84.5 µM)	20 (≈ 42.2 µM)	80 (≈ 169 µM)	1.25 (≈ 2.64 µM)	5 (≈ 10.6 µM)	> 80	20 (≈ 42.2 µM)	1.25 (≈ 2.64 µM)	10 (≈ 21.1 µM)	40 (≈ 84.5 µM)	> 80	> 80	> 80	10 (≈ 21.1 µM)	10 (≈ 21.1 µM)	> 80	0.5 (≈ 1.06 µM)	1 (≈ 2.11 µM)	MIC (M. suipneumoniae NB12): 1 µg/mL (≈ 2.11 µM); MIC (M. suipneumoniae LABER): 1 µg/mL (≈ 2.11 µM); MIC [5]: 0.1 µg/mL (≈ 0.211 µM); MIC (M. suipneumoniae MS 16): 1 µg/mL (≈ 2.11 µM); MIC (M. pneumoniae ATCC 15492): 5 µg/mL (≈ 10.6 µM); MIC (M. hyorhinis ATCC 25021): 0.5 µg/mL (≈ 1.06 µM); MIC (M. hyorhinis ATCC 23234): 0.5 µg/mL (≈ 1.06 µM); MIC [6]: 0.025 µg/mL (≈ 0.0528 µM); MIC (Staph. aureus Oxford [7]): 2.5 µg/mL (≈ 5.28 µM); MIC [8]: 10 µg/mL (≈ 21.1 µM); MIC (Strep. faecalis I): > 100 µg/mL; MIC (P. mirabilis 889): > 100 µg/mL; MIC [9]: 2.5 µg/mL (≈ 5.28 µM); MIC [10]: 1 µg/mL (≈ 2.11 µM); MIC (M. suipneumoniae TAM 6N): 2.5 µg/mL (≈ 5.28 µM); MIC (M. suipneumoniae JF 435): 1 µg/mL (≈ 2.11 µM)

From patent publication EP0052437A1, “Antibacterial compounds, processes for their preparation and compositions containing them” (BEECHAM GROUP PLC, priority 1980, dated 1982)
